Where two headings read alike, the source gives them in different places.
Columns and labels:
[1] = target: Mcl-1/Bim interaction (Homo sapiens (Human), UniProt Q07820); assay: Cell Free Mcl-1: Bim Affinity Assay (Mcl-1 HTRF); assay type: binding; conditions: TR-FRET, recombinant human Mcl-1(171-327), biotin-Bim(51-76); read-out: Mel-1 HTRF IC50
Outline: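 IC50 values came from duplicate four-parameter fits of the 665/620 nm TR-FRET ratio, read after overnight incubation with Eu anti-6×His and streptavidin-Xlent detection reagents. Beforehand, serially diluted compounds sat 60 min with Mcl-1 residues 171-327 (0.1 nM) and biotinylated Bim 51-76 peptide (0.05 nM), pH 7.5 Hepes/NaCl/DTT buffer.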

[2] = system: OPM-2; assay: Cell Viability Assay (OPM-2 10 FBS); assay type: cell-based, human; conditions: OPM-2 cells, CellTiter-Glo, read-out: OPM-2 10% FBS IC50 IP
Outline: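 Compounds, serially diluted, were left on OPM-2 cells (3000 cells/well, 10% FBS RPMI 1640) for 16 h at 37° C. under 5% CO2.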

Sequence of Mcl-1/Bim interaction (Q07820 171-327): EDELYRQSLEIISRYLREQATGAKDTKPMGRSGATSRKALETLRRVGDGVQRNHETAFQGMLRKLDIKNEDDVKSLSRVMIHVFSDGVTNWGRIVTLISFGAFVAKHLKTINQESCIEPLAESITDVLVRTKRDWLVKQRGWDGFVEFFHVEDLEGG

| IC50 [1] | Compound | IC50 ([2]; Homo sapiens, OPM-2, 16 h) | IC50 ([2]; 16 h) |
| --- | --- | --- | --- |
| 0.000568 µM | CC(=O)N(C)[C@H]1CO[C@@H]([C@H]2CCC[C@H](C)[C@@H](C)S(=O)(=O)NC(=O)c3ccc4c(c3)N(C[C@@H]3CC[C@H]32)C[C@@]2(CCCc3cc(Cl)ccc32)CO4)OC1 [Example 47, N-(cis-2-((1S,3′R,6′R,7′S,11′S,12′R)-6-chloro-11′,12′-dimethyl-13′,13′-dioxido-15′-oxo-3,4-dihydro-2H-spiro[naphthalene-1,22′-[20]oxa[13]thia[1,14]diazatetracyclo [14.7.2.0~3,6~.0~19,24~]pentacosa[16,18,24]trien]-7′-yl)-1,3-dioxan-5-yl)-N-methylacetamide] | 0.545 µM |  |
| 0.00059 µM | CN[C@H]1CO[C@H]([C@H]2CCC[C@H](C)[C@@H](C)S(=O)(=O)NC(=O)c3ccc4c(c3)N(C[C@@H]3CC[C@H]32)C[C@@]2(CCCc3cc(Cl)ccc32)CO4)OC1 [Example 48, (1S,3′R,6′R,7′S,11′S,12′R)-6-chloro-11′,12′-dimethyl-7′-(trans-5-(methylamino)-1,3-dioxan-2-yl)-3,4-dihydro-2H,15′H-spiro[naphthalene-1,22′-[20]oxa[13]thia[1,14]diazatetracyclo [14.7.2.0~3,6~.0~19,24~]pentacosa[16,18,24]trien]-15′-one 13′,13′-dioxide] |  | 0.184 µM |
| 0.00152 µM | CN[C@H]1CO[C@H]([C@H]2CCC[C@H](C)[C@@H](C)S(=O)(=O)NC(=O)c3ccc4c(c3)N(C[C@@H]3CC[C@H]32)C[C@@]2(CCCc3cc(Cl)ccc32)CO4)OC1 [Example 49, (1S,3′R,6′R,7′S,11′S,12′R)-6-chloro-11′,12′-dimethyl-7′-(trans-5-(methylamino)-1,3-dioxan-2-yl)-3,4-dihydro-2H,15′H-spiro[naphthalene-1,22′-[20]oxa[13]thia[1,14]diazatetracyclo [14.7.2.0~3,6~.0~19,24~]pentacosa[16,18,24]trien]-15′-one 13′,13′-dioxide] |  | 0.966 µM |
| 0.00502 µM | C[C@@H]1[C@@H](C)CCC[C@](C)([C@H]2OC[C@@H](N(C)C)CO2)[C@@H]2CC[C@H]2CN2C[C@@]3(CCCc4cc(Cl)ccc43)COc3ccc(cc32)C(=O)NS1(=O)=O [Example 65, (1S,3′R,6′R,7′S,11′S,12′R)-6-chloro-7′-(cis-5-(dimethylamino)-1,3-dioxan-2-yl)-7′,11′,12′-trimethyl-3,4-dihydro-2H,15′H-spiro[naphthalene-1,22′-[20]oxa[13]thia[1,14]diazatetracyclo [14.7.2.0~3,6~.0~19,24~]pentacosa[16,18,24]trien]-15′-one 13′,13′-dioxide] | 1.56 µM |  |
| 0.000535 µM | C[C@@H]1[C@@H](C)CCC[C@H]([C@H]2OC[C@@H](N(C)C3CC3)CO2)[C@@H]2CC[C@H]2CN2C[C@@]3(CCCc4cc(Cl)ccc43)COc3ccc(cc32)C(=O)NS1(=O)=O [Example 69, (1S,3′R,6′R,7′S,11′S,12′R)-6-chloro-7′-(cis-5-(cyclopropyl(methyl)amino)-1,3-dioxan-2-yl)-11′,12′-dimethyl-3,4-dihydro-2H,15′H-spiro[naphthalene-1,22′-[20]oxa[13]thia[1,14]diazatetracyclo [14.7.2.0~3,6~.0~19,24~]pentacosa[16,18,24]trien]-15′-one 13′,13′-dioxide] |  | 0.415 µM |
| 0.00131 µM | C[C@@H]1[C@@H](C)CCC[C@H]([C@H]2OC[C@@H](N(C)C3CC3)CO2)[C@@H]2CC[C@H]2CN2C[C@@]3(CCCc4cc(Cl)ccc43)COc3ccc(cc32)C(=O)NS1(=O)=O [Example 70, (1S,3′R,6′R,7′S,11′S,12′R)-6-chloro-7′-(cis-5-(cyclopropyl(methyl)amino)-1,3-dioxan-2-yl)-11′,12′-dimethyl-3,4-dihydro-2H,15′H-spiro[naphthalene-1,22′-[20]oxa[13]thia[1,14]diazatetracyclo [14.7.2.0~3,6~.0~19,24~]pentacosa[16,18,24]trien]-15′-one 13′,13′-dioxide] |  | 1.58 µM |
| 0.000217 µM | COCCN(C)[C@H]1CO[C@@H]([C@H]2CCC[C@H](C)[C@@H](C)S(=O)(=O)NC(=O)c3ccc4c(c3)N(C[C@@H]3CC[C@H]32)C[C@@]2(CCCc3cc(Cl)ccc32)CO4)OC1 [Example 71, (1S,3′R,6′R,7′S,11′S,12′R)-6-chloro-7′-(cis-5-((2-methoxyethyl)(methyl)amino)-1,3-dioxan-2-yl)-11′,12′-dimethyl-3,4-dihydro-2H,15′H-spiro[naphthalene-1,22′-[20]oxa[13]thia[1,14]diazatetracyclo [14.7.2.0~3,6~.0~19,24~]pentacosa[16,18,24]trien]-15′-one 13′,13′-dioxide] |  | 0.09 µM |
| 0.000568 µM | COCCN(C)[C@H]1CO[C@@H]([C@H]2CCC[C@H](C)[C@@H](C)S(=O)(=O)NC(=O)c3ccc4c(c3)N(C[C@@H]3CC[C@H]32)C[C@@]2(CCCc3cc(Cl)ccc32)CO4)OC1 [Example 72, (1S,3′R,6′R,7′S,11′S,12′R)-6-chloro-7′-(cis-5-((2-methoxyethyl)(methyl)amino)-1,3-dioxan-2-yl)-11′,12′-dimethyl-3,4-dihydro-2H,15′H-spiro[naphthalene-1,22′-[20]oxa[13]thia[1,14]diazatetracyclo [14.7.2.0~3,6~.0~19,24~]pentacosa[16,18,24]trien]-15′-one 13′,13′-dioxide] |  | 0.341 µM |
| 0.013 µM | C[C@@H]1CC[C@H]([C@H]2OC[C@@H](N(C)C)CO2)[C@@H]2CC[C@H]2CN2C[C@@]3(CCCc4cc(Cl)ccc43)COc3ccc(cc32)C(=O)NS(=O)(=O)C[C@@H]1C [Example 75, (1S,3′R,6′R,7′S,10′R,11′R)-6-chloro-7′-(cis-5-(dimethylamino)-1,3-dioxan-2-yl)-10′,11′-dimethyl-3,4-dihydro-2H,15′H-spiro[naphthalene-1,22′-[20]oxa[13]thia[1,14]diazatetracyclo [14.7.2.0~3,6~.0~19,24~]pentacosa[16,18,24]trien]-15′-one 13′,13′-dioxide] |  | 6.77 µM |

| Compound | IC50 [1] | IC50 ([2]; Homo sapiens, OPM-2, 16 h) | IC50 ([2]; 16 h) |
| --- | --- | --- | --- |
| C[C@@H]1[C@@H](C)CCC[C@H]([C@H]2OC[C@@H](N3CC4(COC4)C3)CO2)[C@@H]2CC[C@H]2CN2C[C@@]3(CCCc4cc(Cl)ccc43)COc3ccc(cc32)C(=O)NS1(=O)=O [Example 60, (1S,3′R,6′R,7′S,11′S,12′R)-6-chloro-11′,12′-dimethyl-7′-(cis-5-(2-oxa-6-azaspiro[3.3]hept-6-yl)-1,3-dioxan-2-yl)-3,4-dihydro-2H,15′H-spiro[naphthalene-1,22′-[20]oxa[13]thia[1,14]diazatetracyclo [14.7.2.0~3,6~.0~19,24~]pentacosa[16,18,24]trien]-15′-one 13′,13′-dioxide] | 0.000897 µM | 0.61 µM |  |
| CCN(C)[C@H]1CO[C@@H]([C@H]2CCC[C@H](C)[C@@H](C)S(=O)(=O)NC(=O)c3ccc4c(c3)N(C[C@@H]3CC[C@H]32)C[C@@]2(CCCc3cc(Cl)ccc32)CO4)OC1 [Example 66, (1S,3′R,6′R,7′S,11′S,12′R)-6-chloro-7′-(cis-5-(ethyl(methyl)amino)-1,3-dioxan-2-yl)-11′,12′-dimethyl-3,4-dihydro-2H,15′H-spiro[naphthalene-1,22′-[20]oxa[13]thia[1,14]diazatetracyclo [14.7.2.0~3,6~.0~19,24~]pentacosa[16,18,24]trien]-15′-one 13′,13′-dioxide] | 0.00129 µM | 0.326 µM |  |

— patent publication US11364248B2 (AMGEN INC., priority 2017, dated 2022)
